Data reported in PubChem BioAssay (NCI).
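Following 48 hours of exposure in 96-well plates, responses at five concentrations were used to interpolate endpoints linearly. Here, GI50 denotes the concentration required for 50% inhibition of growth. TGI is the concentration that stops growth completely.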

Tests used:
Assay in all cases: inhibition of tumour cell growth, NCI panel, 48 h
U251 CNS = tested on: U251 CNS
RXF 393 renal = tested on: RXF 393 renal
NCI-H522 lung = tested on: NCI-H522 lung
HCC-2998 colon = tested on: HCC-2998 colon
PC-3 prostate = tested on: PC-3 prostate
EKVX NSCLC = tested on: EKVX NSCLC
BT-549 breast = tested on: BT-549 breast
KM12 colon = tested on: KM12 colon
SK-OV-3 ovarian = tested on: SK-OV-3 ovarian
SF-295 CNS = tested on: SF-295 CNS

SMILES | TGI (U251 CNS) | TGI (RXF 393 renal) | TGI (NCI-H522 lung) | TGI (HCC-2998 colon) | TGI (PC-3 prostate) | TGI (EKVX NSCLC) | TGI (BT-549 breast) | TGI (KM12 colon) | TGI (SK-OV-3 ovarian) | TGI (SF-295 CNS) | GI50 (U251 CNS) | GI50 (RXF 393 renal) | GI50 (NCI-H522 lung) | GI50 (HCC-2998 colon) | GI50 (PC-3 prostate) | GI50 (EKVX NSCLC) | GI50 (KM12 colon) | GI50 (SK-OV-3 ovarian) | GI50 (SF-295 CNS)
COC(=O)C1(Cc2ccc3c(c2)CCC3)Cc2ccc3c(c2C1=O)CCC3 (centres undefined) | > 69.6 µM | 22.7 µM | 18.8 µM | 44.5 µM | > 95.2 µM | > 100 µM | > 46.1 µM | > 100 µM | > 100 µM | > 72.6 µM | – | – | – | – | – | – | – | – | –
CCOC(=O)/C(C(N)=O)=C(\O)C(=O)/C=C(\O)c1ccc(Cl)cc1 | 29.1 µM | 32.2 µM | 34.3 µM | – | 38.1 µM | 58.3 µM | 33.6 µM | 36.9 µM | > 100 µM | > 100 µM | – | – | – | – | – | – | – | – | –
O=C(N/N=C\c1ccc(Cl)cc1)Nc1ccc2ccccc2c1 | 63.5 µM | > 100 µM | > 100 µM | > 100 µM | > 100 µM | > 100 µM | > 100 µM | > 100 µM | > 100 µM | – | – | – | – | – | – | – | – | – | –
O=C1OC(C(O)CO)C(C(O)CO)OC1=O (centres undefined) | > 10 µM | > 10 µM | – | > 10 µM | > 10 µM | > 10 µM | > 10 µM | > 10 µM | – | > 10 µM | – | – | – | – | – | – | – | – | –
CC1[C@@]2(O[C@@H]3C=C4C5CCC6Cc7nc8c(nc7C[C@@]6(C)C5C[C@H](O)[C@@]4(C)[C@]13O)CC1CCc3c(cc4c5c3C(O)C[C@H]5[C@@H](C)C3(O4)OC(C)(C)CC3O)[C@]1(C)C8)O[C@@](C)(CO)C[C@@H]2O (some centres undefined) | 0.586 µM | 0.153 µM | 2.39 µM | > 3.72 µM | – | > 3.72 µM | – | > 3.72 µM | 0.976 µM | 0.182 µM | – | – | – | – | – | – | – | – | –
Nc1cc(OCC2CCCCC2)nc(N)n1 | > 100 µM | > 100 µM | > 100 µM | > 100 µM | > 100 µM | > 100 µM | > 100 µM | > 100 µM | > 100 µM | > 100 µM | – | – | – | – | – | – | – | – | –
O=C1CCCC2=C1CC1=C(CCCC1=O)N2c1ccc(Cl)cc1 | > 100 µM | > 100 µM | – | > 100 µM | > 100 µM | > 100 µM | > 100 µM | > 100 µM | > 100 µM | > 100 µM | – | – | – | – | – | – | – | – | –
O=C1c2c(c3c4cc(F)ccc4oc3c3[nH]c4ccccc4c23)C(=O)N1O | 13.4 µM | 6.85 µM | 5.41 µM | > 100 µM | > 100 µM | 65.8 µM | – | > 100 µM | 19.6 µM | 9 µM | 0.904 µM | 1.92 µM | 0.53 µM | 2.53 µM | 1.35 µM | 6.85 µM | 3.33 µM | 2.48 µM | 2.33 µM
CCOP(=O)(OCC)C(c1ccc(F)cc1)N(C(=O)NC(F)(F)F)c1ccc(F)cc1 (centres undefined) | > 100 µM | > 100 µM | > 100 µM | > 100 µM | > 100 µM | > 100 µM | – | > 100 µM | – | > 100 µM | – | – | – | – | – | – | – | – | –
O=C(O)c1ccc2c(O)c(O)ccc2c1 | 45.6 µM | 42.5 µM | 36.4 µM | > 60.9 µM | > 78.8 µM | 47.7 µM | 40.8 µM | 31.3 µM | > 72.5 µM | 33.5 µM | – | – | – | – | – | – | – | – | –
O=c1c(NCc2ccccc2)c(C2(c3ccccc3F)SCCCS2)c1=O | > 100 µM | > 100 µM | > 100 µM | – | > 100 µM | > 100 µM | > 100 µM | > 100 µM | > 100 µM | > 100 µM | – | – | – | – | – | – | – | – | –
CN1C/C(=C\c2cccs2)C2=NN(c3ccccc3)C(c3cccs3)C2C1 (centres undefined) | > 100 µM | – | > 100 µM | > 100 µM | > 100 µM | > 100 µM | > 100 µM | > 100 µM | > 100 µM | > 80.3 µM | – | – | – | – | – | – | – | – | –
COP(=O)(OC)C(N)Cc1c[nH]c2ccccc12 (centres undefined) | > 100 µM | – | > 100 µM | > 100 µM | > 100 µM | – | – | – | > 100 µM | > 100 µM | – | – | – | – | – | – | – | – | –
Cc1nc2c(Cl)cc(Cl)cc2c2c1CCO2 | > 100 µM | > 100 µM | > 100 µM | > 100 µM | – | > 100 µM | > 100 µM | > 100 µM | – | > 100 µM | – | – | – | – | – | – | – | – | –
O=C(Cn1c2ccc(Br)cc2c2nc3ccccc3nc21)NCc1ccccc1 | 69.7 µM | 26.9 µM | – | > 100 µM | > 100 µM | – | > 100 µM | > 100 µM | > 100 µM | > 100 µM | – | – | – | – | – | – | – | – | –
COc1cc(/C=C/C(=O)CC(=O)/C=C/c2cc(C)c(O)c(OC)c2)cc(C)c1O | > 100 µM | – | > 100 µM | > 100 µM | > 100 µM | > 100 µM | > 100 µM | > 100 µM | > 100 µM | > 100 µM | – | – | – | – | – | – | – | – | –
O=[N+]([O-])c1ccc(C[P+]2(c3ccccc3)CCCCC2)cc1 (tested in a mixture with another compound) | > 100 µM | > 100 µM | – | > 100 µM | – | > 100 µM | – | > 100 µM | > 100 µM | > 100 µM | – | – | – | – | – | – | – | – | –
COc1c(C(=O)/C(=N/Nc2ccc(C(=O)O)cc2)C(C)=O)c(O)cc2occc12 | > 100 µM | > 100 µM | > 100 µM | > 100 µM | > 100 µM | > 100 µM | – | > 100 µM | > 100 µM | > 100 µM | – | – | – | – | – | – | – | – | –
CCC(C)C(Nc1c2ccccc2nc2c(C(=O)NCCN(C)C)cccc12)C(=O)O (centres undefined) | > 100 µM | – | 56.8 µM | – | > 100 µM | 77 µM | – | > 100 µM | > 100 µM | 40.9 µM | – | – | – | – | – | – | – | – | –
CC(C#N)(NO)C(C)(C#N)NO (centres undefined) | > 100 µM | > 100 µM | > 100 µM | > 100 µM | > 100 µM | > 100 µM | > 100 µM | > 100 µM | > 100 µM | – | – | – | – | – | – | – | – | – | –
Cc1cccc2c(=O)c3cccc([C@H](C)C(=O)O)c3oc12 | > 100 µM | – | > 100 µM | > 100 µM | > 100 µM | > 100 µM | > 100 µM | > 100 µM | > 100 µM | > 100 µM | – | – | – | – | – | – | – | – | –
